# Several values for one entry are separate records, joined by “and”; a condition that tells them apart may be missing. Identical values can stand only once. Like-named read-outs stand apart in the source and are kept apart here.
# What was measured:
# [1] = assay type: physicochemical
# [2] = physchem
structure (smiles),measurement,setting,value
"O=[N+]([O-])c1ccccc1O [2NP, 2-nitrophenol]",effective mobility,[1]; pH 6.4,12.2(±0.3)·10^−9 m^2/Vs and 13.4(±0.3)·10^−9 m^2/Vs
same,effective mobility,[1]; pH 6.8,15.8(±0.2)·10^−9 m^2/Vs and 16.3(±0.2)·10^−9 m^2/Vs
same,pKa,[2],6.7

# Source: patent US8562804B2 (priority 2006, dated 2013)
